Counter-ions that a name gives are not always drawn.
Molecular target: T1, human TRPM8 (Homo sapiens, UniProt Q7Z2W7)
T1 construct: expressed in transfected cells; host or cells: Chinese hamster ovary (CHO) cells, T-REx tetracycline-inducible expression system (Invitrogen); co-transfected with pcDNA3.1 aequorin
Test: Luminescence readout assay for measuring intracellular calcium (aequorin, CHO cells expressing human TRPM8; icilin, L-menthol or cold activation)
Type: cell-based
Conditions: CHO cells expressing human TRPM8, icilin activation (1 μM), aequorin luminescence; read-out: hTRPM8 IC50
Outline: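 Activation was by 1 μM icilin, 100 μM L-menthol (test compound 2.5 min ahead) or cold buffer below 10° C (compound 1 min ahead). Calcium rise measured as aequorin luminescence in CHO cells with tetracycline-inducible human TRPM8.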

T1 sequence (Q7Z2W7 whole entry): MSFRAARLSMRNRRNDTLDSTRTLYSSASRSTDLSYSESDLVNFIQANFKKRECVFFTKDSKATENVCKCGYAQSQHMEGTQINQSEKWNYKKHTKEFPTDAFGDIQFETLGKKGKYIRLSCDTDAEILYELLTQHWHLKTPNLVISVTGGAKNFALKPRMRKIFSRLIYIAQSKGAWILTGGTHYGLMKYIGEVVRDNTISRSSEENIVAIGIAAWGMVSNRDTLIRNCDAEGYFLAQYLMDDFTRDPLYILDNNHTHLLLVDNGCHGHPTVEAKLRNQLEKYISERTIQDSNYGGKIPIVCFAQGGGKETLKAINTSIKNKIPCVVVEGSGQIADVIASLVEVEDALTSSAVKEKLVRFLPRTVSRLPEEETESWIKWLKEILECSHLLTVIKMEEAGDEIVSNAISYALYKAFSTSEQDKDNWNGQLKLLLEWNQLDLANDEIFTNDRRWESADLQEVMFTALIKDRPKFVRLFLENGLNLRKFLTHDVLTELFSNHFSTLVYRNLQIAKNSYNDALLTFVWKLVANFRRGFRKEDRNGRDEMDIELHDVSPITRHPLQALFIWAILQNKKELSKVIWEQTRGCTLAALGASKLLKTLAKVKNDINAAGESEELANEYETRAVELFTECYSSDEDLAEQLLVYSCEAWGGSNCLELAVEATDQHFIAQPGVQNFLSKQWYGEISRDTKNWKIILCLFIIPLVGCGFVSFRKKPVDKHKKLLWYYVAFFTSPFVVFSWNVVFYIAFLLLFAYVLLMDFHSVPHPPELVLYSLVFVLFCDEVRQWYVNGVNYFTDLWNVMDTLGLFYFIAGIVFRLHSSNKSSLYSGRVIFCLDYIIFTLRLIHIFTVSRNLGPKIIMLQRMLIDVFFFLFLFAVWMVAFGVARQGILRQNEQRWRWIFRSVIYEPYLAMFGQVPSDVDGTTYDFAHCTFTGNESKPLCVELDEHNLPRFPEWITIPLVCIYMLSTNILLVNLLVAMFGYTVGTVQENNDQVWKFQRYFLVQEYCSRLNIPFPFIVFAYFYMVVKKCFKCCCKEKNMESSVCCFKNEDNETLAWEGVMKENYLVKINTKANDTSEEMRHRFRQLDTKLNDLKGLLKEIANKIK

SMILES | IC50
O=C(N[C@]1(c2ccc(OC(F)(F)F)cc2)CCOc2cccnc21)C1Cc2ccccc2N1 (stereo partly drawn) [Example 245, N-((S)-4-(4-(trifluoromethoxy)phenyl)-3,4-dihydro-2H-pyrano[3,2-b]pyridin-4-yl)indoline-2-carboxamide formate] | 0.254 µM
O=C(N[C@]1(c2ccc(OC(F)(F)F)cc2)CCOc2cccnc21)C1Cc2ccccc2O1 (stereo partly drawn) [Example 246, N-((S)-4-(4-(trifluoromethoxy)phenyl)-3,4-dihydro-2H-pyrano[3,2-b]pyridin-4-yl)-2,3-dihydrobenzo furan-2-carboxamide formate] | 0.0944 µM
O=C(N[C@]1(c2ccc(OC(F)(F)F)cc2)CCOc2cccnc21)c1nccc2ccccc12 [Example 247, (S)-N-(4-(4-(trifluoromethoxy)phenyl)-3,4-dihydro-2H-pyrano[3,2-b]pyridin-4-yl)isoquinoline-1-carboxamide formate] | 0.03 µM
O=C(N[C@]1(c2ccc(OC(F)(F)F)cc2)CCOc2cccnc21)c1cc2ccccc2cn1 [Example 248, (S)-N-(4-(4-(trifluoromethoxy)phenyl)-3,4-dihydro-2H-pyrano[3,2-b]pyridin-4-yl)isoquinoline-3-carboxamide formate] | 0.024 µM
O=C(N[C@]1(c2ccc(OC(F)(F)F)cc2)CCOc2cccnc21)c1cccc2cnccc12 [Example 249, (S)-N-(4-(4-(trifluoromethoxy)phenyl)-3,4-dihydro-2H-pyrano[3,2-b]pyridin-4-yl)isoquinoline-5-carboxamide formate] | 0.099 µM
O=C(N[C@]1(c2ccc(OC(F)(F)F)cc2)CCOc2cccnc21)c1ccc2cnccc2c1 [Example 250, (S)-N-(4-(4-(trifluoromethoxy)phenyl)-3,4-dihydro-2H-pyrano[3,2-b]pyridin-4-yl)isoquinoline-6-carboxamide formate] | 0.015 µM
O=C(N[C@]1(c2ccc(OC(F)(F)F)cc2)CCOc2cccnc21)c1ccc2ccccc2n1 [Example 251, (S)-N-(4-(4-(trifluoromethoxy)phenyl)-3,4-dihydro-2H-pyrano[3,2-b]pyridin-4-yl)quinoline-2-carboxamide formate] | 0.056 µM
O=C(N[C@]1(c2ccc(OC(F)(F)F)cc2)CCOc2cccnc21)c1cnc2ccccc2c1 [Example 252, (S)-N-(4-(4-(trifluoromethoxy)phenyl)-3,4-dihydro-2H-pyrano[3,2-b]pyridin-4-yl)quinoline-3-carboxamide formate] | 0.024 µM
O=C(N[C@]1(c2ccc(OC(F)(F)F)cc2)CCOc2cccnc21)c1ccc2ncccc2c1 [Example 253, (S)-N-(4-(4-(trifluoromethoxy)phenyl)-3,4-dihydro-2H-pyrano[3,2-b]pyridin-4-yl)quinoline-6-carboxamide formate] | 0.004 µM
O=C(N[C@]1(c2ccc(OC(F)(F)F)cc2)CCOc2cccnc21)c1ccc2cccnc2c1 [Example 254, (S)-N-(4-(4-(trifluoromethoxy)phenyl)-3,4-dihydro-2H-pyrano[3,2-b]pyridin-4-yl)quinoline-7-carboxamide fonnate] | 0.025 µM
O=C(N[C@]1(c2ccc(OC(F)(F)F)cc2)CCOc2cccnc21)c1cnc2ccccc2n1 [Example 255, (S)-N-(4-(4-(trifluoromethoxy)phenyl)-3,4-dihydro-2H-pyrano[3,2-b]pyridin-4-yl)quinoxaline-2-carboxamide formate] | 0.009 µM
Cn1c(C(=O)N[C@]2(c3ccc(OC(F)(F)F)cc3)CCOc3cccnc32)cc2ccccc21 [Example 256, (S)-1-methyl-N-(4-(4-(trifluoromethoxy)phenyl)-3,4-dihydro-2H-pyrano[3,2-b]pyridin-4-yl)-1H-indole-2-carboxamide formate] | 0.048 µM
Cn1cc(C(=O)N[C@]2(c3ccc(OC(F)(F)F)cc3)CCOc3cccnc32)c2ccccc21 [Example 257, (S)-1-methyl-N-(4-(4-(trifluoromethoxy)phenyl)-3,4-dihydro-2H-pyrano[3,2-b]pyridin-4-yl)-1H-indole-3-carboxamide formate] | 0.059 µM
Cn1ccc2cc(C(=O)N[C@]3(c4ccc(OC(F)(F)F)cc4)CCOc4cccnc43)ccc21 [Example 258, (S)-1-methyl-N-(4-(4-(trifluoromethoxy)phenyl)-3,4-dihydro-2H-pyrano[3,2-b]pyridin-4-yl)-1H-indole-5-carboxamide formate] | 0.034 µM
O=C(N[C@]1(c2ccc(OC(F)(F)F)cc2)CCOc2cccnc21)C1=Cc2ccccc2OC1 [Example 259, (S)-N-(4-(4-(trifluoromethoxy)phenyl)-3,4-dihydro-2H-pyrano[3,2-b]pyridin-4-yl)-2H-chromene-3-carboxamide formate] | 0.088 µM
Cn1c(C(=O)N[C@]2(c3ccc(OC(F)(F)F)cc3)CCOc3cccnc32)nc2ccccc21 [Example 260, (S)-1-methyl-N-(4-(4-(trifluoromethoxy)phenyl)-3,4-dihydro-2H-pyrano[3,2-b]pyridin-4-yl)-1H-benzo[d]imidazole-2-carboxamide formate] | 0.032 µM

SMILES | IC50
Cn1ncc2c(C(=O)N[C@]3(c4ccc(OC(F)(F)F)cc4)CCOc4cccnc43)cccc21 [Example 261, (S)-1-methyl-N-(4-(4-(trifluoromethoxy)phenyl)-3,4-dihydro-2H-pyrano[3,2-b]pyridin-4-yl)-1H-indazole-4-carboxamide formate] | 0.032 µM
Cn1ncc2cc(C(=O)N[C@]3(c4ccc(OC(F)(F)F)cc4)CCOc4cccnc43)ccc21 [Example 262, (S)-1-methyl-N-(4-(4-(trifluoromethoxy)phenyl)-3,4-dihydro-2H-pyrano[3,2-b]pyridin-4-yl)-1H-indazole-5-carboxamide formate] | 0.007 µM
Cn1ncc2ccc(C(=O)N[C@]3(c4ccc(OC(F)(F)F)cc4)CCOc4cccnc43)cc21 [Example 263, (S)-1-methyl-N-(4-(4-(trifluoromethoxy)phenyl)-3,4-dihydro-2H-pyrano[3,2-b]pyridin-4-yl)-1H-indazole-6-carboxamide formate] | 0.095 µM
Cn1cc2c(C(=O)N[C@]3(c4ccc(OC(F)(F)F)cc4)CCOc4cccnc43)cccc2n1 [Example 264, (S)-2-methyl-N-(4-(4-(trifluoromethoxy)phenyl)-3,4-dihydro-2H-pyrano[3,2-b]pyridin-4-yl)-2H-indazole-4-carboxamide formate] | 0.074 µM
Cn1cc2ccc(C(=O)N[C@]3(c4ccc(OC(F)(F)F)cc4)CCOc4cccnc43)cc2n1 [Example 265, (S)-2-methyl-N-(4-(4-(trifluoromethoxy)phenyl)-3,4-dihydro-2H-pyrano[3,2-b]pyridin-4-yl)-2H-indazole-6-carboxamide formate] | 0.014 µM
Cn1cc2cccc(C(=O)N[C@]3(c4ccc(OC(F)(F)F)cc4)CCOc4cccnc43)c2n1 [Example 266, (S)-2-methyl-N-(4-(4-(trifluoromethoxy)phenyl)-3,4-dihydro-2H-pyrano[3,2-b]pyridin-4-yl)-2H-indazole-7-carboxamide formate] | 0.036 µM
O=C(N[C@]1(c2ccc(OC(F)(F)F)cc2)CCOc2cccnc21)c1cc2ccccc2s1 [Example 267, (S)-N-(4-(4-(trifluoromethoxy)phenyl)-3,4-dihydro-2H-pyrano[3,2-b]pyridin-4-yl) benzo[b]thiophene-2-carboxamide formate] | 0.037 µM
O=C(N[C@]1(c2ccc(OC(F)(F)F)cc2)CCOc2cccnc21)c1csc2ccccc12 [Example 268, (S)-N-(4-(4-(trifluoromethoxy)phenyl)-3,4-dihydro-2H-pyrano[3,2-b]pyridin-4-yl) benzo[b]thiophene-3-carboxamide formate] | 0.071 µM
O=C(N[C@]1(c2ccc(OC(F)(F)F)cc2)CCOc2cccnc21)c1ccc2nsnc2c1 [Example 269, (S)-N-(4-(4-(trifluoromethoxy)phenyl)-3,4-dihydro-2H-pyrano[3,2-b]pyridin-4-yl) benzo[c][1,2,5] thiadiazole-5-carboxamide formate] | 0.024 µM
Cn1nc2c(c1C(=O)N[C@]1(c3ccc(OC(F)(F)F)cc3)CCOc3cccnc31)CCCC2 [Example 270, (S)-2-methyl-N-(4-(4-(trifluoromethoxy)phenyl)-3,4-dihydro-2H-pyrano[3,2-b]pyridin-4-yl)-4,5,6,7-tetrahydro-2H-indazole-3-carboxamide formate] | 0.044 µM
O=C(N[C@]1(c2ccc(OC(F)(F)F)cc2)CCOc2cccnc21)c1ccc2cc[nH]c(=O)c2c1 [Example 271, (S)-1-oxo-N-(4-(4-(trifluoromethoxy)phenyl)-3,4-dihydro-2H-pyrano[3,2-b]pyridin-4-yl)-1,2-dihydroisoquinoline-7-carboxamide formate] | 0.016 µM
O=C(N[C@]1(c2ccc(OC(F)(F)F)cc2)CCOc2cccnc21)c1c[nH]c(=O)c2ccccc12 [Example 272, (S)-1-oxo-N-(4-(4-(trifluoromethoxy)phenyl)-3,4-dihydro-2H-pyrano[3,2-b]pyridin-4-yl)-1,2-dihydroisoquinoline-4-carboxamide formate] | 0.183 µM
O=C(N[C@]1(c2ccc(OC(F)(F)F)cc2)CCOc2cccnc21)c1ccc(-c2cnco2)cc1 [Example 273, (S)-4-(oxazol-5-yl)-N-(4-(4-(trifluoromethoxy)phenyl)-3,4-dihydro-2H-pyrano[3,2-b]pyridin-4-yl)benzamide formate] | 0.019 µM
COc1cc2cc(C(=O)N[C@]3(c4ccc(OC(F)(F)F)cc4)CCOc4cccnc43)[nH]c2cn1 [Example 274, (S)-5-methoxy-N-(4-(4-(trifluoromethoxy)phenyl)-3,4-dihydro-2H-pyrano[3,2-b]pyridin-4-yl)-1H-pyrrolo[2,3-c] pyridine-2-carboxamide formate] | 0.189 µM
Cc1nc(-c2cccc(C(=O)N[C@]3(c4ccc(OC(F)(F)F)cc4)CCOc4cccnc43)c2)no1 [Example 275, (S)-3-(5-methyl-1,2,4-oxadiazol-3-yl)-N-(4-(4-(trifluoromethoxy)phenyl)-3,4-dihydro-2H-pyrano[3,2-b]pyridin-4-yl)benzamide formate] | 0.034 µM
